Measurements published in the NIST ThermoML archive (doi:10.1021/acs.jced.8b01204).
± gives the expanded uncertainty stated by the source.

What was measured:
[1] = 101 kPa, Liquid; for speed of sound: Single path-length method; for mass density: Vibrating tube method
[2] = xn = mol fraction of the nth substance listed; conditions: 101 kPa, Liquid, x2 = 0; for speed of sound: Single path-length method; for mass density: Vibrating tube method

SMILES	speed of sound ([1]; 293.15 K) [m/s]	mass density ([1]; 293.15 K) [kg/m3]	speed of sound ([1]; 298.15 K) [m/s]	mass density ([1]; 298.15 K) [kg/m3]	speed of sound ([1]; 303.15 K) [m/s]	mass density ([1]; 303.15 K) [kg/m3]	speed of sound ([1]; 308.15 K) [m/s]	mass density ([1]; 308.15 K) [kg/m3]	speed of sound ([1]; 313.15 K) [m/s]	mass density ([1]; 313.15 K) [kg/m3]	speed of sound ([2]; 293.15 K) [m/s]	mass density ([2]; 293.15 K) [kg/m3]	speed of sound ([2]; 298.15 K) [m/s]	mass density ([2]; 298.15 K) [kg/m3]	speed of sound ([2]; 303.15 K) [m/s]	mass density ([2]; 303.15 K) [kg/m3]	speed of sound ([2]; 308.15 K) [m/s]	mass density ([2]; 308.15 K) [kg/m3]	speed of sound ([2]; 313.15 K) [m/s]	mass density ([2]; 313.15 K) [kg/m3]
CC(=O)O [acetic acid]	1159.3 ± 6.1	1052.5 ± 3	1142.8 ± 6.1	1046.9 ± 3	1126.3 ± 6.1	1041.4 ± 3	1109.6 ± 6.1	1035.8 ± 3	1094.8 ± 6.1	1030 ± 3										
CC(=O)O [acetic acid] + C[N+]1(CC2CO2)CCCC1=O.O=C([O-])c1ccccc1O											1159.3 ± 6.1	1052.5 ± 3	1142.8 ± 6.1	1046.9 ± 3	1126.3 ± 6.1	1041.4 ± 3	1109.6 ± 6.1	1035.8 ± 3	1094.8 ± 6.1	1030 ± 3
CCC(=O)O [propanoic acid]	1166.3 ± 6.1	993.8 ± 3	1148.1 ± 6.1	988.4 ± 3	1129.7 ± 6.1	983 ± 3	1111.3 ± 6.1	977.6 ± 3	1092.8 ± 6.1	972.2 ± 3										

Other lines, results leading:

speed of sound ([1]; 293.15 K) [m/s]	mass density ([1]; 293.15 K) [kg/m3]	speed of sound ([1]; 298.15 K) [m/s]	mass density ([1]; 298.15 K) [kg/m3]	speed of sound ([1]; 303.15 K) [m/s]	mass density ([1]; 303.15 K) [kg/m3]	speed of sound ([1]; 308.15 K) [m/s]	mass density ([1]; 308.15 K) [kg/m3]	speed of sound ([1]; 313.15 K) [m/s]	mass density ([1]; 313.15 K) [kg/m3]	speed of sound ([2]; 293.15 K) [m/s]	mass density ([2]; 293.15 K) [kg/m3]	speed of sound ([2]; 298.15 K) [m/s]	mass density ([2]; 298.15 K) [kg/m3]	speed of sound ([2]; 303.15 K) [m/s]	mass density ([2]; 303.15 K) [kg/m3]	speed of sound ([2]; 308.15 K) [m/s]	mass density ([2]; 308.15 K) [kg/m3]	speed of sound ([2]; 313.15 K) [m/s]	mass density ([2]; 313.15 K) [kg/m3]	SMILES
1634.2 ± 6.3	1209.8 ± 3.2	1614.5 ± 6.3	1205.5 ± 3.2	1595.7 ± 6.3	1201.3 ± 3.2	1577.6 ± 6.3	1197.2 ± 3.2	1559.5 ± 6.3	1193 ± 3.2											C[N+]1(CC2CO2)CCCC1=O.O=C([O-])c1ccccc1O (stereo not given) [1-methyl-1-(oxiran-2-ylmethyl)-2-oxopyrrolidinium salicylate]
										1166.3 ± 6.1	993.8 ± 3	1148.1 ± 6.1	988.4 ± 3	1129.7 ± 6.1	983 ± 3	1111.3 ± 6.1	977.6 ± 3	1092.8 ± 6.1	972.2 ± 3	CCC(=O)O [propanoic acid] + C[N+]1(CC2CO2)CCCC1=O.O=C([O-])c1ccccc1O
